# Laboratory results as given in patent US20210363495A1, “CULTURE MEDIA FOR PLURIPOTENT STEM CELLS” (Yeda Research and Development Co. Ltd., priority 2019, published 2021).
# What was measured:
# [1] = system: Tet-OFF-METTL3 hESCs (WIBR3, clone W3G4); experiment: Pluripotency (OCT4+) maintenance of Tet-OFF-METTL3 hESCs in the presence of DOX; assay type: cell-based, human; settings: for expansion of Tet-OFF-METTL3 on DOX: individual small molecule supplemented to NHSM, Geltrex coated plates, no MEFs; for expanding METTL3 depleted cells when substituted for TNKi: optimized ENHSM conditions without TNKi, DOX up to 4 passages
# Source text: FIGS. 1A-I Defining enhanced human naive conditions compatible with expanding METTL3 depleted PSCs. A. Strategy for generating human ESCs with TET-OFF regulated expression of METTL3 m^6A methyltransferase enzyme. B. Western blot analysis for correctly engineered human ESCs with TET-OFF METTL3 regulation, before and after DOX treatment. C. Representative images for human METTL3 TET-OFF engineered cells in different conditions with or without DOX addition. […] D. Scheme depicting strategy for conducting a screen for identifying a small molecule or cytokine additive to previously described human naïve NHSM conditions that allow maintain pluripotency in TET-OFF METTL3 human stem cells after adding DOX. E. W3G4 cells were maintained in the presence of DOX for up to 4 passages in different conditions and stained for OCT4 to quantify percentage of cells that retained their pluripotency. […] F. OCT4+ pluripotency maintenance in NHSM conditions supplemented with various TNK inhibitors and DOX to repress METTL3 expression. G. Quantification of ΔPE-OCT4-GFP knock in naïve pluripotency reporter, in variety of primed (red) and naïve conditions (blue). Mean fluorescence intensity values (MFI) are indicated. H. Quantification of ΔPE-OCT4-GFP knock in naïve pluripotency reporter in variety of conditions with various concentrations of ACTIVIN A recombinant cytokine. […] I. Representative phase contrast images in human ESCs expanded in NHSM+TNKi conditions showing their maintenance of pluripotent domed-like morphology even in the presence of FGFRi.
# In order to identify culture conditions which capture human naïve PSC, the present inventors looked for agents which are capable of maintaining stem cells in a pluripotent state in the absence of defined epigenetic repressors. Human knock-in WIBR3 hESC lines with conditional inducible ablation expression of METTL3 were engineered (FIG. 1A). This was carried out by introducing an exogenous METTL3 transgene under the regulation of Tet-OFF promoter (Liao et al., 2015), followed by CRISPR/Cas9 mediated ablation of both endogenous human METTL3 alleles. Two resultant clones were validated for METTL3 expression only from the exogenous allele, which can be shut off by addition of DOX to the media (called Tet-OFF-METTL3 lines) (FIG. 1B).
# The latter further support rewiring toward naïve pluripotency in NHSM conditions. […] Candidate molecules were tested for the ability to enrich NHSM conditions that allow Tet-OFF-METTL3 to be maintained on Geltrex coated plates in the presence of DOX.
# NHSM conditions were supplemented with individual small molecules (FIG. 1D). […] IWR1 is a WNT inhibitor (WNTi) small molecule that stabilizes AXIN protein in the cytoplasm by inhibiting Tankyrase enzyme (abbreviated herein as TNK inhibitor—TNKi).
# [2] = system: human ESCs; experiment: Domed morphology under TGF/ACTIVIN signalling blockade; assay type: cell-based
# Source text: FIGS. 1A-I Defining enhanced human naive conditions compatible with expanding METTL3 depleted PSCs. A. Strategy for generating human ESCs with TET-OFF regulated expression of METTL3 m^6A methyltransferase enzyme. B. Western blot analysis for correctly engineered human ESCs with TET-OFF METTL3 regulation, before and after DOX treatment. C. Representative images for human METTL3 TET-OFF engineered cells in different conditions with or without DOX addition. […] E. W3G4 cells were maintained in the presence of DOX for up to 4 passages in different conditions and stained for OCT4 to quantify percentage of cells that retained their pluripotency. […] G. Quantification of ΔPE-OCT4-GFP knock in naïve pluripotency reporter, in variety of primed (red) and naïve conditions (blue). Mean fluorescence intensity values (MFI) are indicated. H. Quantification of ΔPE-OCT4-GFP knock in naïve pluripotency reporter in variety of conditions with various concentrations of ACTIVIN A recombinant cytokine. […]
# FIGS. 3A-I. Defining enhanced human naive conditions compatible with blocking TGF/ACTIVIN signaling. […] F. Mass spectrometry-based quantification of m^6A on isolated mRNA from the indicated cell lines and conditions. […]
# [3] = system: WIBR2 hESC carrying MECP2 fluorescent reporter alleles; experiment: X chromosome reactivation, MECP2 two-colour reporter FACS; assay type: cell-based, human; settings: added to ENHSM without ERKi (0ENHSM) or with 0.33 microM ERKi (tENHSM)
# Source text: FIGS. 17A-D. Chromosome X reactivation status and DNA methylation profile in ENHSM based conditions. A. Schematic and FACS results following using WIBR2 (person 46XX) 29-9 hESC line that carries GFP and mCherry on each of the X chromosomes in the MECP2 locus. Parental 29-9 clone has the X chromosome carrying mCherry allele in the active state, and thus is positive only for mCherry and negative for GFP in the primed state. Upon transfer to ENHSM conditions, all cells turn on both X chromosomes and thus become double positive for both fluorescent markers (GFP and mCherry). After transfer into primed conditions (i.e. repriming), cells start to inactivate the X chromosome again. B. RNA-FISH analysis for ATRX transcription in primed and ENHSM WIBR3 cells. Note ATRX is active on both X chromosomes only in ENHSM conditions. C. Western blot analysis for DNA methylation regulators, DNMT1 and UHRF enzymes. DNMT1 protein levels are maintained in all conditions. […] D. Global methylation histogram as calculated from primed samples, and naïve samples that were maintained in various conditions, including titrated ERKi supplementation, along with previously published Reset-naïve and primed samples (Takashima et al), and human ICM samples (Smith et al, Nature 2014, Guo et al, Nature 2014). […]
molecule,measurement,setting,value
O=C(Nc1cccc2cccnc12)c1ccc(N2C(=O)[C@@H]3[C@H](C2=O)[C@H]2C=C[C@@H]3C2)cc1 [exo-IWR1],expansion of Tet-OFF-METTL3 on DOX,[1],failed to do so
Cc1cccc(-c2nn(C(=S)Nc3ccccc3)cc2-c2ccnc3ccccc23)n1 [Condition A83-01],domed morphology after TGFRi,[2]; cells in ENHSM,maintained
same,domed morphology after TGFRi,[2]; cells in NHSM+TNKi,lose their pluripotent dome-like shaped morphology and differentiate
CCCC(CCC)C(=O)O [VPA],expanding METTL3 depleted cells when substituted for TNKi,[1],none of them allowed expanding METTL3 depleted cells in vitro
Oc1nc(-c2ccc(C(F)(F)F)cc2)nc2c1CSCC2 [XAV939],expansion of Tet-OFF-METTL3 on DOX,[1],yielded a similar effect
COc1cccc(-c2cn(-c3ccc(CCN4CCC(O)CC4)cc3)c3ncnc(N)c23)c1 [CGP77675],maintenance of OCT4+ cells without ACTIVIN A,"[1]; TNKi supplemented optimized NHSM, no ACTIVIN A, on DOX",dramatically maintained the stability of dome like cells that were uniformly OCT4+
C[C@H](NC(=O)Cc1cc(F)cc(F)c1)C(=O)N[C@@H]1C(=O)N(C)c2ccccc2-c2ccccc21 [DBZ],maintenance of pre-X inactivation naïve state when ERKi is omitted or depleted,[3],allowed robust and feeder free maintenance of human naïve cells
O=C1Cc2c([nH]c3ccc(Br)cc23)-c2ccccc2N1 [Kenpaullone],expanding METTL3 depleted cells when substituted for TNKi,[1],none of them allowed expanding METTL3 depleted cells in vitro
"ACTIVIN A: recombinant cytokine, activator of TGF/ACTIVIN pathway (protein, homo sapiens) MPLLWLRGFLLASCWIIVRSSPTPGSEGHSAAPDCPSCALAALPKDVPNSQPEMVEAVKKHILNMLHLKKRPDVTQPVPKAALLNAIRKLHVGKVGENGYVEIEDDIGRRAEMNELMEQTSEIITFAESGTARKTLHFEISKEGSDLSVVERAEVWLFLKVPKANRTRTKVTIRLFQQQKHPQGSLDTGEEAEEVGLKGERSELLLSEKVVDARKSTWHVFPVSSSIQRLLDQGKSSLDVRIACEQCQESGASLVLLGKKKKKEEEGEGKKKGGGEGGAGADEEKEQSHRPFLMLQARQSEDHPHRRRRRGLECDGKVNICCKKQFFVSFKDIGWNDWIIAPSGYHANYCEGECPSHIAGTSGSSLSFHSTVINHYRMRGHSPFANLKSCCVPTKLRPMSMLYYDDGQNIIKKDIQNMIVEECGCS",maintenance of pre-X inactivation naïve state when ERKi is omitted or depleted,[3],did not block loss X reactivation
